# Test results reported in patent US12233161B1, “Lipids and lipid nanoparticle formulations” (LONGUIDE BIOPHARMA CORPORATION, priority 2024, dated 2025).
# Key:
# [1] = Potential characterization of nucleic acid lipid nanoparticle preparations; assay type: physicochemical; conditions: Fluc-circ-RNA LNP, preparation given IV
# Outline: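 Nanoparticles (about 0.04 mg/mL mRNA) were diluted in ultrapure water for Malvern ZEN3700 measurement: 20 μL into 780 μL for potential alone, or 27.5 μL into 200 μL for DLS particle size followed by addition of 600 μL water for potential.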
# mice [2] = test: In vivo delivery of FLuc-circ-RNA lipid nanoparticles in mice; conditions: Fluc-circ-RNA LNP, IV
# Experimental: Lipid nanoparticles loaded with nucleic acid drugs were prepared according to step 2, replacing FLuc-mRNA with FLuc-circ-RNA (Hongene Biotech Corporation, Shanghai). After formulation, the nanoparticles were administered via intramuscular injection (into the quadriceps femoris muscle of mice), intravenous injection (into the tail vein of mice), intraperitoneal injection, or subcutaneous injection (subcutaneously on the back). Approximately 75 μL was injected per mouse, with a total of 3 mice per group. In vivo imaging (PerkinElmer, IVIS Lumina III) was performed after a certain period of time. Ten to fifteen minutes before imaging, 200 μL of a 15 mg/mL D-Luciferin working solution was injected intraperitoneally, followed by imaging analysis using the in vivo imaging system.
# mice [3] = test: In vivo delivery of FLuc-mRNA lipid nanoparticles in mice, in vivo imaging (IVIS)
# Outline: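 Mice (n=3) received about 75 μL FLuc-mRNA LNP per mouse intramuscularly (rectus femoris), intravenously (tail vein), intraperitoneally or subcutaneously (back). After injection, D-luciferin (200 μL, 15 mg/mL) was given i.p. 10-15 min before IVIS imaging.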
# [4] = Particle size and PDI of nucleic acid lipid nanoparticle preparations by dynamic light scattering; assay type: physicochemical
# Outline: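 LNP solution (about 0.04 mg/mL mRNA before dilution) was diluted in ultrapure water and mixed by gentle pipetting. Particle size and PDI were then measured by dynamic light scattering.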
# [5] = DMG-PEG2000:DSPC:Chol:Lipid 1.00:11.50:22.50:65.00, N/P 65, IV, liver
# [6] = DMG-PEG2000:DSPC:Chol:Lipid 1.00:11.50:22.50:65.00, N/P 65, IV, lung
# [7] = DMG-PEG2000:DSPC:Chol:Lipid 1.00:11.50:22.50:65.00, N/P 65, IV, spleen
# [8] = DMG-PEG2000:DSPC:Chol:Lipid 1.00:16.00:48.00:35.00, N/P 18, IV, liver
# [9] = DMG-PEG2000:DSPC:Chol:Lipid 1.00:16.00:48.00:35.00, N/P 18, IV, lung
# [10] = DMG-PEG2000:DSPC:Chol:Lipid 1.00:16.00:48.00:35.00, N/P 18, IV, spleen
# [11] = DMG-PEG2000:DSPC:Chol:Lipid 1.00:16.00:48.00:35.00, N/P 30, IV, liver
# [12] = DMG-PEG2000:DSPC:Chol:Lipid 1.00:16.00:48.00:35.00, N/P 30, IV, lung
# [13] = DMG-PEG2000:DSPC:Chol:Lipid 1.00:16.00:48.00:35.00, N/P 30, IV, spleen
# [14] = DMG-PEG2000:DSPC:Chol:Lipid 1.00:11.50:22.50:65.00, N/P 65, mRNA LNP
# [15] = DMG-PEG2000:DSPC:Chol:Lipid 1.00:16.00:48.00:35.00, N/P 18, mRNA LNP
# [16] = DMG-PEG2000:DSPC:Chol:Lipid 1.00:16.00:48.00:35.00, N/P 30, mRNA LNP
# [17] = DMG-PEG2000:DSPC:Chol:Lipid 1.47:11.16:38.97:48.40, N/P 30, mRNA LNP
# [18] = Fluc-circ-RNA LNP, preparation given IV
compound,measurement,setting,value
CCCCCCCCCCCCOC(=O)C(O)CN(CCN(C)CCN(CC(O)C(=O)OCCCCCCCCCCCC)CC(O)C(=O)OCCCCCCCCCCCC)CC(O)C(=O)OCCCCCCCCCCCC (stereo not shown) [Compound L0262],Zeta potential (mV),[1],15.53 mV
same,% of organ targeting,mice [2]; liver,3.78%
same,% of organ targeting,mice [2]; lung,8.14%
same,% of organ targeting,mice [2]; spleen,88.08%
same,IVIS,"mice [3]; DMG-PEG2000:DSPC:Chol:Lipid 1.00:11.50:22.50:65.00, N/P 65, IV, body",2.54 × 10^7
same,% of organ targeting,mice [3]; [5],1.47%
same,IVIS,mice [3]; [5],1.32 × 10^6
same,% of organ targeting,mice [3]; [6],85.62%
same,IVIS,mice [3]; [6],7.69 × 10^7
same,% of organ targeting,mice [3]; [7],12.91%
same,IVIS,mice [3]; [7],1.16 × 10^7
same,IVIS,"mice [3]; DMG-PEG2000:DSPC:Chol:Lipid 1.00:16.00:48.00:35.00, N/P 18, IV, body",1.06 × 10^8
same,% of organ targeting,mice [3]; [8],5.38%
same,IVIS,mice [3]; [8],5.61 × 10^6
same,% of organ targeting,mice [3]; [9],1.85%
same,IVIS,mice [3]; [9],1.93 × 10^6
same,% of organ targeting,mice [3]; [10],92.76%
same,IVIS,mice [3]; [10],9.67 × 10^7
same,IVIS,"mice [3]; DMG-PEG2000:DSPC:Chol:Lipid 1.00:16.00:48.00:35.00, N/P 30, IV, body",2.91 × 10^7
same,% of organ targeting,mice [3]; [11],15.31%
same,IVIS,mice [3]; [11],3.92 × 10^6
same,% of organ targeting,mice [3]; [12],11.64%
same,IVIS,mice [3]; [12],2.98 × 10^6
same,% of organ targeting,mice [3]; [13],73.05%
same,IVIS,mice [3]; [13],1.87 × 10^7
same,IVIS,"mice [3]; DMG-PEG2000:DSPC:Chol:Lipid 1.47:11.16:38.97:48.40, N/P 30, IM, whole body scan",2.83 × 10^5
same,tissue-targeting specificity (lung vs spleen depending on molar percentage of compound),"mice [3]; certain formulations, Table 2",strong tissue-targeting specificity
same,PDI,[4]; [14],0.22 ± 0.01
same,Particle size,[4]; [14],145.43 ± 1.37 nm
same,PDI,[4]; [15],0.16 ± 0.03
same,Particle size,[4]; [15],135.90 ± 1.28 nm
same,PDI,[4]; [16],0.18 ± 0.02
same,Particle size,[4]; [16],137.37 ± 1.50 nm
same,PDI,[4]; [17],0.24 ± 0.02
same,Particle size,[4]; [17],93.36 ± 1.24 nm
same,PDI,[4]; [18],0.16
same,Particle size (nm),[4]; [18],128.4 nm
